The values below come from ChEMBL document CHEMBL5244273, “Tuberculosis: An Overview of the Immunogenic Response, Disease Progression, and Medicinal Chemistry Efforts in the Last Decade toward the Development of Potential Drugs for Extensively Drug-Resistant Tuberculosis Strains” (J Med Chem, 2021).

≈ marks a conversion by molar mass, not a printed value.

Common to all, as to type: functional
In assay [1] the test system is Mycobacterium tuberculosis. In words: Antimycobacterial activity against isoniazid and ethionamide resistant Mycobacterium tuberculosis clinical isolate B.
Assay [2] concerns Mycobacterium tuberculosis. In words: Antimycobacterial activity against isoniazid, streptomycin, rifampicin, ethambutol and ethionamide resistant Mycobacterium tuberculosis clinical isolate G.
In assay [3] the test system is Mycobacterium tuberculosis. In words: Antimycobacterial activity against isoniazid and ethionamide resistant Mycobacterium tuberculosis clinical isolate E.
In assay [4] the test system is Mycobacterium tuberculosis. Kind of assay: Antimycobacterial activity against isoniazid, streptomycin, ethambutol and ethionamide resistant Mycobacterium tuberculosis clinical isolate A.
Assay [5] relates to Mycobacterium tuberculosis. In words: Antimycobacterial activity against isoniazid, streptomycin and ethionamide resistant Mycobacterium tuberculosis clinical isolate F.
Assay [6] concerns Mycobacterium tuberculosis. Kind of assay: Antimycobacterial activity against isoniazid, streptomycin, rifampicin, ethambutol, ethionamide and ofloxacin resistant Mycobacterium tuberculosis clinical isolate H.
The test system of assay [7] is Mycobacterium tuberculosis. In words: Antitubercular activity against multidrug resistant Mycobacterium tuberculosis clinical isolate 11 by resazurin microtitre assay. A general note: Alamar Blue is a resazurin reagent that responds to reducing activity.
For assay [8], the system named is Mycobacterium tuberculosis. Kind of assay: Antitubercular activity against multidrug resistant Mycobacterium tuberculosis clinical isolate 7 by resazurin microtitre assay.
For assay [9], the system named is Mycobacterium tuberculosis. In words: Antitubercular activity against multidrug resistant Mycobacterium tuberculosis clinical isolate 2 by resazurin microtitre assay.
In assay [10] the test system is Mycobacterium tuberculosis. In words: Antitubercular activity against extensively drug resistant Mycobacterium tuberculosis clinical isolate 7 by resazurin microtitre assay.
Assay [11] has as its system Mycobacterium tuberculosis. In words: Antitubercular activity against multidrug resistant Mycobacterium tuberculosis clinical isolate 3 by resazurin microtitre assay.
Assay [12] deals with Mycobacterium tuberculosis. In words: Antitubercular activity against extensively drug resistant Mycobacterium tuberculosis clinical isolate 11 by resazurin microtitre assay.
Assay [13] deals with Mycobacterium tuberculosis. In words: Antitubercular activity against extensively drug resistant Mycobacterium tuberculosis clinical isolate 1 by resazurin microtitre assay.
For assay [14], the system named is Mycobacterium tuberculosis. In words: Antitubercular activity against extensively drug resistant Mycobacterium tuberculosis KMRC 0 0203-0 0197 by resazurin microtitre assay.
Assay [15] relates to Mycobacterium tuberculosis. Kind of assay: Antitubercular activity against extensively drug resistant Mycobacterium tuberculosis clinical isolate 9 by resazurin microtitre assay.
In assay [16] the test system is Mycobacterium tuberculosis. In words: Antitubercular activity against extensively drug resistant Mycobacterium tuberculosis clinical isolate 10 by resazurin microtitre assay.
The subject of assay [17] is Mycobacterium tuberculosis. Kind of assay: Antitubercular activity against multidrug resistant Mycobacterium tuberculosis clinical isolate 8 by resazurin microtitre assay.
The subject of assay [18] is Mycobacterium tuberculosis. In words: Antitubercular activity against extensively drug resistant Mycobacterium tuberculosis clinical isolate 8 by resazurin microtitre assay.
Assay [19] has as its system Mycobacterium tuberculosis. Kind of assay: Antitubercular activity against multidrug resistant Mycobacterium tuberculosis clinical isolate 10 by resazurin microtitre assay.
Assay [20] deals with Mycobacterium tuberculosis. Kind of assay: Antitubercular activity against extensively drug resistant Mycobacterium tuberculosis clinical isolate 6 by resazurin microtitre assay.
Assay [21] relates to Mycobacterium tuberculosis. In words: Antitubercular activity against multidrug resistant Mycobacterium tuberculosis clinical isolate 9 by resazurin microtitre assay.
Assay [22] relates to Mycobacterium tuberculosis. In words: Antitubercular activity against multidrug resistant Mycobacterium tuberculosis clinical isolate 5 by resazurin microtitre assay.
In assay [23] the test system is Mycobacterium tuberculosis. Kind of assay: Antitubercular activity against extensively drug resistant Mycobacterium tuberculosis clinical isolate 5 by resazurin microtitre assay.
Assay [24] concerns Mycobacterium tuberculosis. Kind of assay: Antitubercular activity against multidrug resistant Mycobacterium tuberculosis clinical isolate 1 by resazurin microtitre assay.
Assay [25] relates to Mycobacterium tuberculosis. Kind of assay: Antitubercular activity against extensively drug resistant Mycobacterium tuberculosis clinical isolate 4 by resazurin microtitre assay.
Assay [26] concerns Mycobacterium tuberculosis. In words: Antitubercular activity against multidrug resistant Mycobacterium tuberculosis clinical isolate 6 by resazurin microtitre assay.
Assay [27] has as its system Mycobacterium tuberculosis. In words: Antitubercular activity against extensively drug resistant Mycobacterium tuberculosis clinical isolate 2 by resazurin microtitre assay.
In assay [28] the test system is Mycobacterium tuberculosis. In words: Antitubercular activity against multidrug resistant Mycobacterium tuberculosis clinical isolate 4 by resazurin microtitre assay.
Assay [29] has as its system Mycobacterium tuberculosis. In words: Antitubercular activity against extensively drug resistant Mycobacterium tuberculosis clinical isolate 3 by resazurin microtitre assay.
Assay [30] deals with Mycobacterium tuberculosis. In words: Antimycobacterial activity against multidrug-resistant Mycobacterium tuberculosis H37Rv assessed as inhibition of bacterial growth by alamar blue assay.
Assay [31] deals with Mycobacterium tuberculosis. In words: Antimycobacterial activity against extensively-resistant Mycobacterium tuberculosis H37Rv assessed as inhibition of bacterial growth by alamar blue assay.
Assay [32] concerns Mycobacterium tuberculosis. In words: Antimycobacterial activity against extensively drug resistant Mycobacterium tuberculosis H37Rv.
Assay [33] concerns Mycobacterium tuberculosis. Kind of assay: Antimycobacterial activity against multidrug resistant Mycobacterium tuberculosis H37Rv.
Assay [34] relates to Mycobacterium tuberculosis. Kind of assay: Antimycobacterial activity against isoniazid resistant Mycobacterium tuberculosis clinical isolate incubated for 7 days by resazurin microtitre assay. To be noted: 168 h, time 7 day.
Assay [35] has as its system Mycobacterium tuberculosis. In words: Antimycobacterial activity against isoniazid, rifampicin, ethambutol, pyrazinamide, capreomycin, and ethionamide resistant Mycobacterium tuberculosis clinical isolate incubated for 7 days by resazurin microtitre assay. Particulars: 168 h, time 7 day.
For assay [36], the system named is Mycobacterium tuberculosis. Kind of assay: Antimycobacterial activity against isoniazid, rifampicin, ethambutol, pyrazinamide, streptomycin, capreomycin, amikacin, kanamycin, ofloxacin, and ethionamide resistant Mycobacterium tuberculosis clinical isolate incubated for 7 days by resazurin microtitre assay. Particulars: 168 h, time 7 day.

A word on the MIC: it is the smallest concentration in the dilution series that meets the test's criterion for growth inhibition. Consider `CCc1cc(C(N)=S)ccn1` [ETHIONAMIDE], for which the MIC in [1] is above 114 µg/mL; in [2], above 114 µg/mL; in assay [3], above 80 µg/mL; in [4], 114 µg/mL (≈ 686 µM); in assay [5], above 80 µg/mL; in assay [6], 114 µg/mL (≈ 686 µM).
What is called MIC50 is an inhibitory concentration at the 50% level, which refers to growth in some studies and to a panel of isolates in others. Higher therefore signals weaker potency. Consider `CCN(CC)CCOc1c(C(=O)OC)c2c3c(oc2c2ccccc12)C(=O)c1ccccc1C3=O`, for which the MIC worked out at 0.39 µg/mL (≈ 0.827 µM) in assay [7]; 0.02 µg/mL (≈ 0.0424 µM) in assay [8]; 0.02 µg/mL (≈ 0.0424 µM) in assay [9]; 0.19 µg/mL (≈ 0.403 µM) in [10]; 0.19 µg/mL (≈ 0.403 µM) in assay [11]; 0.19 µg/mL (≈ 0.403 µM) in [12]. For the same molecule, the MIC came to 0.02 µg/mL (≈ 0.0424 µM) in assay [13]; 0.19 µg/mL (≈ 0.403 µM) in assay [15]; 0.02 µg/mL (≈ 0.0424 µM) in assay [16]; 0.39 µg/mL (≈ 0.827 µM) in assay [17]; 0.19 µg/mL (≈ 0.403 µM) in assay [18]; 0.02 µg/mL (≈ 0.0424 µM) in assay [19]. Further, the minimum inhibitory concentration (MIC) in assay [20] was 0.19 µg/mL (≈ 0.403 µM); in assay [21], 0.02 µg/mL (≈ 0.0424 µM); in [22] it was 0.19 µg/mL (≈ 0.403 µM); in [23], 0.19 µg/mL (≈ 0.403 µM); in assay [24], 0.19 µg/mL (≈ 0.403 µM); in assay [25], 0.19 µg/mL (≈ 0.403 µM). The MIC in assay [26] turned out to be 0.02 µg/mL (≈ 0.0424 µM); in assay [27], 0.02 µg/mL (≈ 0.0424 µM); in assay [28], 0.19 µg/mL (≈ 0.403 µM); in assay [29], 0.19 µg/mL (≈ 0.403 µM). The same molecule yielded an MIC50 in assay [14] of 0.19 µg/mL (≈ 0.403 µM).
`COc1ccccc1NC(=O)c1c(Nc2cccc(C)c2)nn2c(O)cc(C)nc12`: the figures for the MIC in assay [30] and in [31] were 6.25 µg/mL (≈ 15.5 µM) and 12.5 µg/mL (≈ 31 µM), respectively.
Regarding `NNC(=O)c1ccncc1` [ISONIAZID], the MIC in assay [7] is 12.5 µg/mL (≈ 91.1 µM); in assay [8], 50 µg/mL (≈ 365 µM); in assay [30], 6.25 µg/mL (≈ 45.6 µM); in assay [9], 12.5 µg/mL (≈ 91.1 µM); in assay [10], 6.25 µg/mL (≈ 45.6 µM); in assay [11] it was 3.13 µg/mL (≈ 22.8 µM). Also, the MIC is 6.25 µg/mL (≈ 45.6 µM) in assay [12]; 12.5 µg/mL (≈ 91.1 µM) in assay [13]; 25 µg/mL (≈ 182 µM) in [14]; 50 µg/mL (≈ 365 µM) in assay [15]; above 200 µg/mL in [16]; 12.5 µg/mL (≈ 91.1 µM) in [17]. Moreover, the MIC in assay [18] turned out to be 12.5 µg/mL (≈ 91.1 µM); in assay [19], 3.13 µg/mL (≈ 22.8 µM); in [32] it was 50 µg/mL (≈ 365 µM); in [20], 12.5 µg/mL (≈ 91.1 µM); in assay [31], 50 µg/mL (≈ 365 µM); in assay [21], 25 µg/mL (≈ 182 µM). For the same molecule, the MIC in assay [22] was found to be 12.5 µg/mL (≈ 91.1 µM); in assay [23], 12.5 µg/mL (≈ 91.1 µM); in [24], 12.5 µg/mL (≈ 91.1 µM); in assay [25], 12.5 µg/mL (≈ 91.1 µM); in assay [26] it was 25 µg/mL (≈ 182 µM); in assay [27], 3.13 µg/mL (≈ 22.8 µM). Moreover, the values for the MIC in [28], in assay [33] and in assay [29] were 25 µg/mL (≈ 182 µM), 6.25 µg/mL (≈ 45.6 µM) and 3.13 µg/mL (≈ 22.8 µM), respectively.
As to `CC[C@@H](CO)NCCN[C@@H](CC)CO` [ETHAMBUTOL], the minimal inhibitory concentration (MIC) in assay [7] came to 6.25 µg/mL (≈ 30.6 µM); in assay [8], 6.25 µg/mL (≈ 30.6 µM); in assay [9], 6.25 µg/mL (≈ 30.6 µM); in [10] it was 12.5 µg/mL (≈ 61.2 µM); in assay [11] it was 3.13 µg/mL (≈ 15.3 µM); in assay [12], 6.25 µg/mL (≈ 30.6 µM). Also, the minimum inhibitory concentration (MIC) in assay [13], in assay [14], in assay [15], in assay [16], in assay [17] and in [18] was 6.25 µg/mL (≈ 30.6 µM) throughout. The MIC came to 0.78 µg/mL (≈ 3.82 µM) in assay [19]; 6.25 µg/mL (≈ 30.6 µM) in assay [20]; 3.13 µg/mL (≈ 15.3 µM) in assay [21]; 6.25 µg/mL (≈ 30.6 µM) in assay [22]; 6.25 µg/mL (≈ 30.6 µM) in assay [23]; 6.25 µg/mL (≈ 30.6 µM) in assay [24]. For the same molecule, the MIC in [25], in assay [26], in assay [27], in [28] and in assay [29] was 6.25 µg/mL (≈ 30.6 µM) in each case.
For the molecule `CC(=O)N1/C(=C/c2ccc(-c3ccccc3)cc2)C(=O)c2ccccc21`, the MIC in assay [34], in assay [35] and in assay [36] was 12.3 µM (≈ 4.17 µg/mL) in each case.
For `Cc1cc(O)n2nc(Nc3ccc(F)c(F)c3)c(C(=O)Nc3ccc(F)cc3)c2n1`, the values for the MIC in assay [30] and in assay [31] were 3.12 µg/mL (≈ 7.55 µM) and 25 µg/mL (≈ 60.5 µM), respectively.
For the molecule `CC(=O)N1/C(=C/c2ccc(-c3ccc(Cl)cc3)cc2)C(=O)c2ccccc21`, the MIC in [34] came out at 8.37 µM (≈ 3.13 µg/mL); in [35], 10.4 µM (≈ 3.89 µg/mL); in [36], 8.37 µM (≈ 3.13 µg/mL).
